Molecules are shown by their SMILES. In brackets after ≈: the same amount, converted by molar mass. Activity calls are given as the source filed them. The calls are words filed in the database; no cut-off is given here.

D(2) dopamine receptor, sequence (P14416 whole entry): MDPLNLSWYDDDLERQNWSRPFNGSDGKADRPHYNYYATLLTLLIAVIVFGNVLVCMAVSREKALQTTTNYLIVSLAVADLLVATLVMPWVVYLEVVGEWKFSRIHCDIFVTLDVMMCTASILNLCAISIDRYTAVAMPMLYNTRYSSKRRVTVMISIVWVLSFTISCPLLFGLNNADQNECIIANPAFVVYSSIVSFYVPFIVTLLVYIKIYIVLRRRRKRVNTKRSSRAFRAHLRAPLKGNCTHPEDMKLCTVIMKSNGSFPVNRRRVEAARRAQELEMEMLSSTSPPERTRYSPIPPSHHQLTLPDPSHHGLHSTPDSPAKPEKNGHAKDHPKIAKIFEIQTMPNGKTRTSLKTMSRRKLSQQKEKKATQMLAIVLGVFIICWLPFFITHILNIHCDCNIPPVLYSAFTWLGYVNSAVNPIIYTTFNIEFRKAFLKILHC

Tested on in the first data set: not listed separately
The experiment in a line: Inhibition of field excitatory postsynaptic potential in Wistar rat medial perforant path dentate gyrus after 20 mins by electrophysiological assay in presence of 10 uM GSK1331268.
The term pEC50 denotes the negative decadic logarithm of the EC50, by convention in mol/L. `COc1ccccc1Oc1ccc(N(Cc2cccnc2)S(=O)(=O)CC(F)(F)F)cc1`: the pEC50 is given as 7.364.

In another data set the target is T1, Metabotropic glutamate receptor 5 (Homo sapiens, UniProt P41594). The experiment in a line: Positive modulation of mGluR5.
Take `Cn1c(CN2CCN(c3ncc(C(F)(F)F)cc3Cl)CC2)nc2ccccc21`: the outcome was inactive.

As to `Cn1c(CN2CCN(c3ncc(Cl)cn3)CC2)nc2ccccc21`, the outcome was inactive.

By EC50 is commonly meant the concentration that produces a half-maximal response. As for `Cn1c(CN2CCC(c3ccccc3F)CC2)nc2ccccc21`, the EC50 is more than 15.8 µM.

The target in the next data set is T2, Metabotropic glutamate receptor 2 (Homo sapiens, UniProt Q14416). As to the kind of experiment: Agonist activity at human mGluR2 expressed in CHO cells co-expressing Ga16 G-protein assessed as glutamate-induced response by FLIPR assay. The class given is functional, cell-based.
Target sequence in this assay (Q14416 whole entry): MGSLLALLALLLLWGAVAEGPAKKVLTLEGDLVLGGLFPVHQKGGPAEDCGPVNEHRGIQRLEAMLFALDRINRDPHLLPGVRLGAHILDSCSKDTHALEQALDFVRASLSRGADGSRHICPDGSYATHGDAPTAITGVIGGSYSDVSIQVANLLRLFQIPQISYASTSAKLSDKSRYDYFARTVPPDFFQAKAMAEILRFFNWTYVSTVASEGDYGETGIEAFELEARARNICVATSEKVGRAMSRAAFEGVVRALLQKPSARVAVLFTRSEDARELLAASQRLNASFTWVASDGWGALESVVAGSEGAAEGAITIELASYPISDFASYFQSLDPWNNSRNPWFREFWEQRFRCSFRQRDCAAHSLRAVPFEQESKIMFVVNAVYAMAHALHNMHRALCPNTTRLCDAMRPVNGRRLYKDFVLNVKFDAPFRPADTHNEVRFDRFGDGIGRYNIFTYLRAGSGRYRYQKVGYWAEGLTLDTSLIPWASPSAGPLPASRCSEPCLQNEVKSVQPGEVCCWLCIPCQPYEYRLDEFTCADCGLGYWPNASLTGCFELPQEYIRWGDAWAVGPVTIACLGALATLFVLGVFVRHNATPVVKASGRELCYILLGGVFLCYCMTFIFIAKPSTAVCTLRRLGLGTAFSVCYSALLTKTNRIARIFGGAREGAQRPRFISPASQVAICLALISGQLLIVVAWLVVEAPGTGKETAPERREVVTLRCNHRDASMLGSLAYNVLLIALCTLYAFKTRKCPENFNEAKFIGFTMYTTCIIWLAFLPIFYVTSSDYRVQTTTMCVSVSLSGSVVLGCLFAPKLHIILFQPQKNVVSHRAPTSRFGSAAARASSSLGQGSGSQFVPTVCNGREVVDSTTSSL
For the molecule `Cn1c(CN2CCN(c3ccc(Cl)cc3)CC2)nc2ccccc21`, the EC50 was more than 15.8 µM.

Take `Cn1c(CN2CCN(c3ccc(C(F)(F)F)cn3)CC2)nc2ccccc21`: the EC50 was 6.31 µM.

`Cn1c(CN2CCN(c3ccc(C(F)(F)F)cc3)CC2)nc2ccccc21`: the EC50 is 6.31 µM.

Regarding `Cn1c(CN2CCC(c3nc4ccccc4s3)CC2)nc2ccccc21`, the EC50 was 3.16 µM.

Take `Cn1c(CN2CCN(c3nc4ccccc4s3)CC2)nc2ccccc21`: the EC50 is 2 µM.

As to `Cn1c(CN2CCN(c3ncc(C(F)(F)F)cc3Cl)CC2)nc2ccccc21`, the EC50 is 2 µM.

Regarding `Cn1c(CN2CCN(c3ncc(Cl)cn3)CC2)nc2ccccc21`, the concentration giving a half-maximal response (EC50) was 1.26 µM.

Turning to `Cn1c(CN2CCC(c3ccccc3F)CC2)nc2ccccc21`, the EC50 is 3.98 µM.

The target in another data set is T1, Metabotropic glutamate receptor 5. The experiment in a line: Antagonist activity at mGluR5. It is filed as functional.
Take `Cn1c(CN2CCN(c3ncc(C(F)(F)F)cc3Cl)CC2)nc2ccccc21`: the outcome was inactive.

On to `Cn1c(CN2CCN(c3ncc(Cl)cn3)CC2)nc2ccccc21`, for which the outcome was inactive.

In turn, `Cn1c(CN2CCC(c3ccccc3F)CC2)nc2ccccc21` had an EC50 of more than 15.8 µM.

The target of another data set is T2, Metabotropic glutamate receptor 2. The experiment in a line: Positive modulation of human mGluR2 expressed in CHO cells co-expressing Ga16 G-protein assessed as glutamate-induced response by FLIPR assay. It is filed as cell-based.
Target sequence in this assay (Q14416 whole entry): as above
For the molecule `Cn1c(CN2CCN(c3ccc(Cl)cc3)CC2)nc2ccccc21`, the EC50 was 0.794 µM.

With `Cn1c(CN2CCN(c3ccc(C(F)(F)F)cn3)CC2)nc2ccccc21`, the EC50 is 0.501 µM.

Take `Cn1c(CN2CCN(c3ccc(C(F)(F)F)cc3)CC2)nc2ccccc21`: the EC50 was 0.2 µM.

For `Cn1c(CN2CCC(c3nc4ccccc4s3)CC2)nc2ccccc21`, the EC50 was 0.158 µM.

In the case of `Cn1c(CN2CCN(c3nc4ccccc4s3)CC2)nc2ccccc21`, the EC50 was 0.316 µM.

On to `Cn1c(CN2CCN(c3ncc(C(F)(F)F)cc3Cl)CC2)nc2ccccc21`, for which the EC50 is 0.0794 µM.

As for `Cn1c(CN2CCN(c3ncc(Cl)cn3)CC2)nc2ccccc21`, the EC50 was 0.126 µM.

Turning to `Cn1c(CN2CCC(c3ccccc3F)CC2)nc2ccccc21`, the EC50 is 0.126 µM.

The next data set deals with Metabotropic glutamate receptor 4 (Homo sapiens) (UniProt Q14833). The experiment in a line: Positive modulation of mGluR4.
Metabotropic glutamate receptor 4 (Homo sapiens), sequence (Q14833 whole entry): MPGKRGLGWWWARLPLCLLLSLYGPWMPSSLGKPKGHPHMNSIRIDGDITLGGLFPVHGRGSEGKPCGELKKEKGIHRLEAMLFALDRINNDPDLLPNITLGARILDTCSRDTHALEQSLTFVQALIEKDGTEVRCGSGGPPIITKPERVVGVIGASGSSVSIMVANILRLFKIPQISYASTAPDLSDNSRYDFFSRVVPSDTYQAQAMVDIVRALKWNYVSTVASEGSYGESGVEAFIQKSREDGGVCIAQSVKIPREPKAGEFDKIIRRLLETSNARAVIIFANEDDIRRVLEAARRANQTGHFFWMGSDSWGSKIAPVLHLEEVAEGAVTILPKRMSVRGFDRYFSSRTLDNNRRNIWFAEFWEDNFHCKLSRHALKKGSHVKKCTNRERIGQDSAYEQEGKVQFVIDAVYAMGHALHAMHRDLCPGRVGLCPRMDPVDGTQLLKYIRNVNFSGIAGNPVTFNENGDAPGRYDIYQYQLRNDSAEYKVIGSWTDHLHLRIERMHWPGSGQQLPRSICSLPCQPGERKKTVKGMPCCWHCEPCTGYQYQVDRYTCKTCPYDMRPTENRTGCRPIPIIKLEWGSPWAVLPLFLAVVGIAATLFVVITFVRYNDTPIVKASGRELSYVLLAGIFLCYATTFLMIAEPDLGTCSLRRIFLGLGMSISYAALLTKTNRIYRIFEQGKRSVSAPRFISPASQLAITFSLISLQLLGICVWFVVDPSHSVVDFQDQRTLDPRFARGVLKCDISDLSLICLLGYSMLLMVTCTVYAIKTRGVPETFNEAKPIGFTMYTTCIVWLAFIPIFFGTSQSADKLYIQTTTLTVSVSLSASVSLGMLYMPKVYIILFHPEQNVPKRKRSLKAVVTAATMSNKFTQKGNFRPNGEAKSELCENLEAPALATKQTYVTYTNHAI
`Cn1c(CN2CCN(c3ncc(C(F)(F)F)cc3Cl)CC2)nc2ccccc21`: the outcome was inactive.

Regarding `Cn1c(CN2CCN(c3ncc(Cl)cn3)CC2)nc2ccccc21`, the outcome was inactive.

For another data set, the target named is T2, Metabotropic glutamate receptor 2. As to the kind of experiment: Positive modulation of human mGluR2 expressed in CHO cells co-expressing Ga16 G-protein assessed as glutamate-induced response by FLIPR assay relative to glutamate. It is filed as cell-based.
Target sequence in this assay (Q14416 19-872 limits assumed): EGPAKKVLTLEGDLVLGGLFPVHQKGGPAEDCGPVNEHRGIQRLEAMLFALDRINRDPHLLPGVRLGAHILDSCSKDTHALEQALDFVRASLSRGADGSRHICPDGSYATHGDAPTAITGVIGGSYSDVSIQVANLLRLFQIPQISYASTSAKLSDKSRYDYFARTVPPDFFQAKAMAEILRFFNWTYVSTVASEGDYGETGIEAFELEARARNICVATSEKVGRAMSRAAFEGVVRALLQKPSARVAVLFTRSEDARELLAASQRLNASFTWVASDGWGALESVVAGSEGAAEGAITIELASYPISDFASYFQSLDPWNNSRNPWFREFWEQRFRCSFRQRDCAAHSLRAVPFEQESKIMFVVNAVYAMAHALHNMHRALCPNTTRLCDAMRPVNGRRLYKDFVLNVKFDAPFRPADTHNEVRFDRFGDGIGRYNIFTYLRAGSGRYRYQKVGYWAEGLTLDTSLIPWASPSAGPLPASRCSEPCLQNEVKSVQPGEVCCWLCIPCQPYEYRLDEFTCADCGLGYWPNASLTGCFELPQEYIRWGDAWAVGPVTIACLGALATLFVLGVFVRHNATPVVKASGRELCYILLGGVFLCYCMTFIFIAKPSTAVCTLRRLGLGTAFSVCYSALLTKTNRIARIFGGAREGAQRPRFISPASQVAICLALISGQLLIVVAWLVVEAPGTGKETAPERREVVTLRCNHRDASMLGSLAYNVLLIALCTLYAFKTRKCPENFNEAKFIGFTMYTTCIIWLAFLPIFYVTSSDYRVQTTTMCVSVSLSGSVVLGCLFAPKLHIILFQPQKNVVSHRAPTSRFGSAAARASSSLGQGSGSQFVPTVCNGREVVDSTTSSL
In general, Emax refers to the greatest response seen or fitted, relative to the assay's reference. For `Cn1c(CN2CCN(c3ccc(C(F)(F)F)cn3)CC2)nc2ccccc21`, the Emax came out at 81%.

Consider `Cn1c(CN2CCN(c3ccc(C(F)(F)F)cc3)CC2)nc2ccccc21`, for which the Emax came out at 84%.

As for `Cn1c(CN2CCC(c3nc4ccccc4s3)CC2)nc2ccccc21`, the Emax amounted to 76%.

Take `Cn1c(CN2CCN(c3nc4ccccc4s3)CC2)nc2ccccc21`: the Emax stood at 88%.

For `Cn1c(CN2CCN(c3ncc(C(F)(F)F)cc3Cl)CC2)nc2ccccc21`, the Emax worked out at 71%.

Regarding `Cn1c(CN2CCN(c3ncc(Cl)cn3)CC2)nc2ccccc21`, the Emax is 69%.

In another data set the target is D(3) dopamine receptor (Homo sapiens, UniProt P35462). The experiment in a line: Antagonist activity at human D3 receptor expressed in CHO cells co-expressing G0 by [35S]GTPgammaS binding assay. It is filed as functional, cell-based.
D(3) dopamine receptor, sequence (P35462 whole entry): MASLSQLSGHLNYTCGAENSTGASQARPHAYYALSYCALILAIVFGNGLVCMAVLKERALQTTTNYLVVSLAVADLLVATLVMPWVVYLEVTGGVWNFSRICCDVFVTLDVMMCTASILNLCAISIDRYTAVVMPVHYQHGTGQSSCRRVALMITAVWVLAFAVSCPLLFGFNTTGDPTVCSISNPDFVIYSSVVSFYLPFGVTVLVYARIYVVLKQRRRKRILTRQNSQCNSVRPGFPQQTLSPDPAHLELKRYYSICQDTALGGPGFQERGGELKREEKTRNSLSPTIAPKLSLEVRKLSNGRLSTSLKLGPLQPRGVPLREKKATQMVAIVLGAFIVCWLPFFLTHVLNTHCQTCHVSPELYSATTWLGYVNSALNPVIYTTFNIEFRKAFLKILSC
As a reminder, the Ki is a dissociation constant, usually derived from enzyme kinetics or from competition with a known ligand. The low end stands for tighter binding, the high end for weaker binding. The molecule `Cn1c(CN2CCN(c3ccc(Cl)cc3)CC2)nc2ccccc21` gave a Ki of more than 10 µM.

The molecule `Cn1c(CN2CCN(c3ccc(C(F)(F)F)cn3)CC2)nc2ccccc21` gave a Ki of more than 10 µM.

In turn, `Cn1c(CN2CCN(c3ccc(C(F)(F)F)cc3)CC2)nc2ccccc21` gave a Ki of more than 10 µM.

Molecule `Cn1c(CN2CCC(c3nc4ccccc4s3)CC2)nc2ccccc21` showed a Ki of more than 10 µM.

`Cn1c(CN2CCN(c3nc4ccccc4s3)CC2)nc2ccccc21` had an inhibitory constant (Ki) of more than 10 µM.

`Cn1c(CN2CCN(c3ncc(C(F)(F)F)cc3Cl)CC2)nc2ccccc21`: the affinity, expressed as Ki, was 5.01 µM.

The molecule `Cn1c(CN2CCN(c3ncc(Cl)cn3)CC2)nc2ccccc21` had a Ki of more than 10 µM.

Another data set concerns the target D(2) dopamine receptor (Homo sapiens, UniProt P14416). As to the kind of experiment: Antagonist activity at human D2 receptor expressed in CHO cells co-expressing G0 by [35S]GTPgammaS binding assay. The class given is functional, cell-based.
In turn, `Cn1c(CN2CCN(c3ccc(Cl)cc3)CC2)nc2ccccc21` gave a Ki of more than 10 µM.

As to `Cn1c(CN2CCN(c3ccc(C(F)(F)F)cn3)CC2)nc2ccccc21`, the inhibitory constant (Ki) was more than 10 µM.

As for `Cn1c(CN2CCN(c3ccc(C(F)(F)F)cc3)CC2)nc2ccccc21`, the inhibition constant Ki is more than 10 µM.

Regarding `Cn1c(CN2CCC(c3nc4ccccc4s3)CC2)nc2ccccc21`, the Ki was 0.398 µM.

Regarding `Cn1c(CN2CCN(c3nc4ccccc4s3)CC2)nc2ccccc21`, the Ki is more than 10 µM.

As to `Cn1c(CN2CCN(c3ncc(C(F)(F)F)cc3Cl)CC2)nc2ccccc21`, the Ki is 5.01 µM.

For the molecule `Cn1c(CN2CCN(c3ncc(Cl)cn3)CC2)nc2ccccc21`, the Ki was more than 10 µM.

`Cn1c(CN2CCC(c3ccccc3F)CC2)nc2ccccc21` gave a Ki of 0.0398 µM.

The target in the next data set is Metabotropic glutamate receptor 4 (Homo sapiens) (UniProt Q14833). As to the kind of experiment: Antagonist activity at mGluR4. The class given is functional.
For `Cn1c(CN2CCN(c3ncc(C(F)(F)F)cc3Cl)CC2)nc2ccccc21`, the outcome was inactive.

Consider `Cn1c(CN2CCN(c3ncc(Cl)cn3)CC2)nc2ccccc21`, for which the outcome was inactive.

For another data set, the target named is T3, D(4) dopamine receptor (Homo sapiens, UniProt P21917).
T3 sequence (P21917 whole entry): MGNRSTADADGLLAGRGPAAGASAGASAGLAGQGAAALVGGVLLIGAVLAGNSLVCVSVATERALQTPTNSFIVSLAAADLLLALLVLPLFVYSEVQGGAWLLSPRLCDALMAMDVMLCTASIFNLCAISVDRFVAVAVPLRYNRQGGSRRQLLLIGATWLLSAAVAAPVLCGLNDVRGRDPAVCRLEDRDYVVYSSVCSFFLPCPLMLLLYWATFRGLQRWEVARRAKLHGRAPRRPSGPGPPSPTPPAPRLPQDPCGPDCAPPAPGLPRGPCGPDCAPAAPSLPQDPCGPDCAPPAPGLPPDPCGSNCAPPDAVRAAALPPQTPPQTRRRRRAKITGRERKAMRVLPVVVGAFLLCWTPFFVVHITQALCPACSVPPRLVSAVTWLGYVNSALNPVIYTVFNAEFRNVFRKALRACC
As to the kind of experiment: Antagonist activity at human D4 receptor expressed in HEK293 cells co-expressing Gqo5 G-protein by FLIPR assay. It is filed as functional, cell-based.
`Cn1c(CN2CCN(c3ccc(Cl)cc3)CC2)nc2ccccc21` gave an inhibitory constant (Ki) of 0.126 µM.

`Cn1c(CN2CCN(c3ccc(C(F)(F)F)cn3)CC2)nc2ccccc21` gave a Ki of 1 µM.

As to `Cn1c(CN2CCN(c3ccc(C(F)(F)F)cc3)CC2)nc2ccccc21`, the Ki is 0.398 µM.

Molecule `Cn1c(CN2CCC(c3nc4ccccc4s3)CC2)nc2ccccc21` gave a Ki of 0.00794 µM.

The molecule `Cn1c(CN2CCN(c3nc4ccccc4s3)CC2)nc2ccccc21` had a Ki of 0.794 µM.

The molecule `Cn1c(CN2CCN(c3ncc(C(F)(F)F)cc3Cl)CC2)nc2ccccc21` showed an inhibition constant Ki of 0.631 µM.

For the molecule `Cn1c(CN2CCN(c3ncc(Cl)cn3)CC2)nc2ccccc21`, the inhibition constant Ki is 2.51 µM.

Another data set addresses T4, Metabotropic glutamate receptor 1 (Homo sapiens, UniProt Q13255). The experiment in a line: Positive modulation of mGluR1.
Target sequence in this assay (Q13255 19-1194 limits assumed): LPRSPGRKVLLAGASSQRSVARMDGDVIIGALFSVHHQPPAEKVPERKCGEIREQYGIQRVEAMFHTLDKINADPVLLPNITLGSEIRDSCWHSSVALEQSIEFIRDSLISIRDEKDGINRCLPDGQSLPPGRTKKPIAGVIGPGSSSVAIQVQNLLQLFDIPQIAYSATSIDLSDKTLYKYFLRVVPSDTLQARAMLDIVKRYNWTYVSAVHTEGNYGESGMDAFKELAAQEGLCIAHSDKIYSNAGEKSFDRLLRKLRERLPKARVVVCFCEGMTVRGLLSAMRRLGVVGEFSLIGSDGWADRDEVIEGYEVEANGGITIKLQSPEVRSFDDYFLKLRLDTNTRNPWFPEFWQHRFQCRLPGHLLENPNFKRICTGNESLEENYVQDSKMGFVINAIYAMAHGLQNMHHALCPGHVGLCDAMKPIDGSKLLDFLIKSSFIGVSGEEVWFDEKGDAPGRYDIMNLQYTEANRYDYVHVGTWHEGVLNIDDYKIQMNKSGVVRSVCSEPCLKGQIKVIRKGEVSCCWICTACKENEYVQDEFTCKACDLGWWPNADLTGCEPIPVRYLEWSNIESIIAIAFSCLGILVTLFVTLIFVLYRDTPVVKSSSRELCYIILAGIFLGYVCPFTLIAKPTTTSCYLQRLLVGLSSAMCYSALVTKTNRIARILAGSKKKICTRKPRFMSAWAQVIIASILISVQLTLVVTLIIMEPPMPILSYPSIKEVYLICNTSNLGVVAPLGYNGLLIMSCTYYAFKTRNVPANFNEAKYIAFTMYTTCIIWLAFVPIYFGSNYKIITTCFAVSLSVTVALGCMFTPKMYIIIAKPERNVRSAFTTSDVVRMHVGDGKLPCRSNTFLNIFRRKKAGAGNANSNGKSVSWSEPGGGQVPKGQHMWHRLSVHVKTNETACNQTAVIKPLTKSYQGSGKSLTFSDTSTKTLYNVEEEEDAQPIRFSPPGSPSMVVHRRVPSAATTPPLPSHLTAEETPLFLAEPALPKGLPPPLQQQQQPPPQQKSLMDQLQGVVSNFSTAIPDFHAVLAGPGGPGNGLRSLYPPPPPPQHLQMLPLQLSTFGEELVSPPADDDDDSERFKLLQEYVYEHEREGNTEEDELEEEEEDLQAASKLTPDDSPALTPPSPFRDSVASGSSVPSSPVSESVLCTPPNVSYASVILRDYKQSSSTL
For the molecule `Cn1c(CN2CCN(c3ncc(C(F)(F)F)cc3Cl)CC2)nc2ccccc21`, the result was inactive.

As to `Cn1c(CN2CCN(c3ncc(Cl)cn3)CC2)nc2ccccc21`, the result was inactive.

Tested on in another data set: not listed separately
The experiment in a line: Inhibition of field excitatory postsynaptic potential in Wistar rat medial perforant path dentate gyrus after 20 mins by electrophysiological assay. The class given is functional, tissue-based.
Turning to `COc1ccccc1Oc1ccc(N(Cc2cccnc2)S(=O)(=O)CC(F)(F)F)cc1`, the pEC50 was determined as 6.864.

In the next data set the target is T1, Metabotropic glutamate receptor 5. The experiment in a line: Agonist activity at mGluR5. It is filed as functional.
`Cn1c(CN2CCN(c3ncc(C(F)(F)F)cc3Cl)CC2)nc2ccccc21`: the outcome was inactive.

With `Cn1c(CN2CCN(c3ncc(Cl)cn3)CC2)nc2ccccc21`, the outcome was inactive.

On to `Cn1c(CN2CCC(c3ccccc3F)CC2)nc2ccccc21`, for which the EC50 is more than 15.8 µM.

A further data set addresses T4, Metabotropic glutamate receptor 1. The experiment in a line: Antagonist activity at mGluR1. The class given is functional.
For the molecule `Cn1c(CN2CCN(c3ncc(C(F)(F)F)cc3Cl)CC2)nc2ccccc21`, the result was inactive.

Regarding `Cn1c(CN2CCN(c3ncc(Cl)cn3)CC2)nc2ccccc21`, the result was inactive.

As to `Cn1c(CN2CCC(c3ccccc3F)CC2)nc2ccccc21`, the EC50 was more than 15.8 µM.

Another data set has the same target. As to the kind of experiment: Agonist activity at mGluR1. It is filed as functional.
On to `Cn1c(CN2CCN(c3ncc(C(F)(F)F)cc3Cl)CC2)nc2ccccc21`, for which the outcome was inactive.

Take `Cn1c(CN2CCN(c3ncc(Cl)cn3)CC2)nc2ccccc21`: the result was inactive.

In turn, `Cn1c(CN2CCC(c3ccccc3F)CC2)nc2ccccc21` gave a concentration giving a half-maximal response (EC50) of more than 15.8 µM.

The target of the next data set is Metabotropic glutamate receptor 4 (Homo sapiens) (UniProt Q14833). As to the kind of experiment: Agonist activity at mGluR4. It is filed as functional.
Consider `Cn1c(CN2CCN(c3ncc(C(F)(F)F)cc3Cl)CC2)nc2ccccc21`, for which the outcome was inactive.

Take `Cn1c(CN2CCN(c3ncc(Cl)cn3)CC2)nc2ccccc21`: the result was inactive.

Tested on in the next data set: not listed separately
The experiment in a line: Solubility of the compound. The class given is physicochemical.
By solubility is commonly meant how much of the substance goes into solution per volume. Read a high solubility as much dissolved substance. Turning to `Cn1c(CN2CCC(c3ccccc3F)CC2)nc2ccccc21`, the concentration in solution (solubility) came to 0.031 mg/mL (≈ 95.9 µM).
